According to patent US10864163B2, “Therapeutic agents and delivery with microspheres” (UCL Business PLC, priority 2013, dated 2020):
Entries after “also recorded” stand apart in the source; their conditions may differ.

Experiments:
[1] = Attachment of API (doxorubicin) to wetted and non-wetted TIPS microspheres; format: physicochemical; conditions: doxorubicin 0.5 mg/ml in water, overnight at room temperature, 150 rpm, centrifuged at 13000 rpm for 20 seconds
Protocol: 100 mg of TIPS microspheres was added to a 7 ml plastic container. The microspheres were wetted with 70% ethanol for 1 minute. The alcohol was removed and the microspheres washed with 5 ml deionised water. 1 ml of doxorubicin (0.5 mg/ml in water) was added to the container. The microspheres and doxorubicin solution were mixed by pipetting and incubated overnight at room temperature with agitation at 150 rpm on an orbital shaker. Control non-wetted microspheres were treated in the same manner. The microspheres were centrifuged at 13000 rpm for 20 seconds.

[2] = Release of API from doxorubicin-loaded wetted TIPS microspheres (FIG. 11d); format: physicochemical; conditions: doxorubicin attached to pre-wetted TIPS microspheres

Question: What does the source list for `COc1cccc2c1C(=O)c1c(O)c3c(c(O)c1C2=O)C[C@@](O)(C(=O)CO)C[C@@H]3O[C@H]1C[C@H](N)[C@H](O)[C@H](C)O1` [doxorubicin]?
Answer: binding of doxorubicin to the surface of non-wetted, hydrophobic microspheres ([1]; control non-wetted microspheres): separated from the non-wetted samples; also recorded: does not bind to the surface of non-wetted, hydrophobic microspheres; binding of doxorubicin to the surface of wetted TIPS microspheres ([1]; microspheres pre-wetted with 70% ethanol): remained bound to the surface of the wetted microspheres; also recorded: binds well to the surface of pre-wetted TIPS microspheres; release of the API from wetted TIPS microspheres [2]: controlled release of the API is observed over a prolonged period
